According to ChEMBL document CHEMBL5518199, “Discovery of Effective Dual PROTAC Degraders for Neurodegenerative Disease-Associated Aggregates” (J Med Chem, 2024):

Tests used:
[1] = in vivo; settings: rat, iv, 8 mg/kg
[2] = in vivo; settings: C57BL/6, mouse, brain, iv, 8 mg/kg
[3] = in vivo; settings: rat, iv, 8 mg/kg; remark: listed apart in the source
[4] = in vivo; settings: C57BL/6, mouse, plasma, iv, 8 mg/kg
[5] = in vivo; settings: C57BL/6, mouse, iv, 8 mg/kg
[6] = in vivo; settings: C57BL/6, mouse, brain, iv, 8 mg/kg; remark: listed apart in the source
[7] = in vivo; settings: C57BL/6, mouse, plasma, iv, 8 mg/kg; remark: listed apart in the source
[8] = in vivo; settings: C57BL/6, mouse, iv, 8 mg/kg; remark: listed apart in the source
[9] = in vivo; settings: rat, iv, 8 mg/kg; remark: listed apart in the source
[10] = in vivo; settings: C57BL/6, mouse, plasma, iv, 8 mg/kg; remark: listed apart in the source
[11] = in vivo; settings: rat, iv, 8 mg/kg; remark: listed apart in the source
[12] = in vivo; settings: rat, iv, 8 mg/kg; remark: listed apart in the source
[13] = in vivo; settings: C57BL/6, mouse, brain, iv, 8 mg/kg; remark: listed apart in the source
[14] = in vitro; settings: C57BL/6, mouse, plasma
[15] = in vivo; settings: C57BL/6, mouse, brain, iv, 8 mg/kg; remark: listed apart in the source
[16] = in vivo; settings: C57BL/6, mouse, iv, 8 mg/kg; remark: listed apart in the source
[17] = in vitro; settings: C57BL/6, mouse, brain
[18] = in vivo; settings: C57BL/6, mouse, iv, 8 mg/kg; remark: listed apart in the source

AUC(0-t) at 24 h [1]: 65.4 µM·h
half-life at 24 h [2]: 4.21 h
clearance at 24 h [3]: 2 mL/min/kg
half-life at 24 h [4]: 3.24 h
AUC(0-inf) at 24 h [5]: 109 µM·h
concentration at 0.25 h [6]: 1730 nM
AUC at 24 h [7]: 109 µM·h
clearance at 24 h [8]: 1.68 mL/min/kg
AUC(0-inf) at 24 h [9]: 65.5 µM·h
concentration at 0.25 h [10]: 67200 nM
Vd at 24 h [11]: 0.92 L/kg
half-life at 24 h [12]: 3.78 h
concentration at 168.25 h [13]: 2700 nM
fraction unbound at 24 h [14]: 0.442
AUC at 24 h [15]: 6.02 µM·h
AUC(0-t) at 24 h [16]: 109 µM·h
fraction unbound at 24 h [17]: 0.397
Vd at 24 h [18]: 0.48 L/kg
SMILES: Cc1ccc2nc(-c3ccc(NCCOCCOCCOCCNC(=O)COc4cccc5c4C(=O)N(C4CCC(=O)NC4=O)C5=O)cc3)sc2c1 (stereo not drawn)
